Measured values as given in US20080311231A1, “Broad Spectrum Non-Traditional Preservative System” (priority 2005, published 2008).

What was measured:
Format in all cases: cell-based
C. albicans [1] = assay: Method C, oil/water base incubated at 30° C. (Examples 7 and 8); settings: 10^7 cfu/gm, 24 hours
Method: Evaluation of the effect of various preservative compositions incorporated in an oil/water base against C. albicans (yeast) incubated at 30° C. Yeast and fungi grow optimally at 30° C. and therefore the efficacy of the preservative was evaluated at this temperature.
Method of evaluation: Method C: Same as Method B except that incubation was at 30° C. and subculturing is done on Sabouraud agar.
The following preservatives at 1.0% and 0.5% concentrations were added to the cream. C. albicais at 10^7 cfu/gm base was added to the base and incubated at 30° C. for 24 hours.
Efficacy of preservatives incorporated in the oil/water base and inoculated with the yeast C. albicans and fungus Aspergillus niger.
The cream base and the cream containing the preservatives were inoculated with 10^7 cfu of C. albicans/gm and 105 cfu of Aspergillus niger/gm; and incubated at 30° C. for 24 hours and 48 hours.
Method of Evaluation: Testing was done using Method C.

C. albicans [2] = assay: Method B, Symrise oil/water cream base (Examples 5 and 6); settings: for Colony counts (CFU/gm) C. albicans: 0.2% w/w in Symrise oil/water cream, 10^7 CFU/gm
Method: Activity of lower concentration of Symdiol™ (0.2% w/w) with organic acids was measured. The cream base used in this study was supplied by Symrise Corporation. This base is an oil/water base. […] Method of evaluation: Method B was used for this test. Method B: Same as described in Method A except a higher inoculum was used. […] Microbial growth measured as CFU was counted after 24 hour incubation at 37° C. The cream base used in this study was supplied by Symrise Corporation. This base is an oil/water base. […] Method of evaluation: Method B was used for this test with C. albicans as test organism.

P. aeruginosa [3] = assay: Efficacy of preservatives against higher concentrations of P. aeruginosa (Example 4); settings: 10^7 cfu per gm cream, 37° C.
Method: (§1) Method of evaluation—Method A: 500 μl or 250 μl of each of the following preservatives was added to 49.5/49.75 gm of the cream base to obtain the desired concentrations for testing as in Table 3, and mixed well. 1.0 gm of this base+preservative formulation was dispensed into several culture tubes and each tube was inoculated with 10 μl of culture containing 10^5 cfu (colony forming units) of test organism. The tubes were incubated at room temperature. After 24 hours the tubes were removed and 9 ml of drug inactivating medium was added and mixed. After making another dilution (1:10) with drug inactivating medium, a 0.5 ml aliquot was subcultured on to a TSA plate. Colony counts were measured after 24 hours incubation at 37° C.
(§2) Evaluation of the synergistic activity of octanediol and AHA combinations against higher concentrations of P. aeruginosa. Since 0.5% Octanediol kills 100% of P. aeruginosa at a concentration of 10^5 cfu/gm, the test was repeated with this organism at 10^7 cfu/gm.
Method of evaluation: Same as described in Method A except a higher inoculum was used. A 100 μl inoculum containing 10^7 cfu of P. aeruginosa was added to each 1 gm of cream and incubated at 37° C.

C. albicans [4] = assay: Preservative activity in cream base, Method A (Example 3); settings: 10^5 cfu inoculum, room temperature, 24 hours
Method: as §1
(§3) Result: Preservative activity of various creams utilizing a concentration of test organism of 10^5 cfu/gm and incubation at room temperature is shown in Table 4.

E. coli [5] = assay: as above; settings: 10^5 cfu inoculum, room temperature, 24 hours
Method: as §1, §3

S. aureus [6] = assay: as above; settings: 10^5 cfu inoculum, room temperature, 24 hours
Method: as §1, §3

E. coli [7] = assay: Method B, Symrise oil/water cream base (Example 5); settings: 0.2% w/w in Symrise oil/water cream; 10^7 CFU/gm; 37° C., 24 hour
Method: (§4) Activity of lower concentration of Symdiol™ (0.2% w/w) with organic acids was measured. The cream base used in this study was supplied by Symrise Corporation. This base is an oil/water base.
(§5) Method of evaluation: Method B was used for this test. Method B: Same as described in Method A except a higher inoculum was used. A 100 μL inoculum containing 10^7 CFU of test organism was added to each 1 gm of cream and incubated at 37° C. Microbial growth measured as CFU was counted after 24 hour incubation at 37° C.

S. aureus [8] = assay: Method B, Symrise oil/water cream base (Example 5); settings: 0.2% w/w in Symrise oil/water cream; 10^7 CFU/gm; 37° C., 24 hour
Method: as §4, §5

P. aeruginosa [9] = assay: Method B, Symrise oil/water cream base (Example 5); settings: 0.2% w/w in Symrise oil/water cream; 10^7 CFU/gm; 37° C., 24 hour
Method: as §4, §5

P. aeruginosa [10] = assay: Preservative activity in cream, Method A inoculum (text of Example 4); settings: 0.5% Octanediol; organism at 10^5 cfu/gm (so in the source)
Method: as §1, §2

[11] = printed as 20% (single ingredient)

SMILES | C. albicans (CFU/gm cream) (C. albicans [1]; [11]) | Colony counts (CFU/gm) C. albicans (C. albicans [2]; 37° C., 24 hour) | Colony counts (CFU/gm) C. albicans (C. albicans [2]; Table 7, Method B) | Colony counts (CFU/gm) P. aeruginosa (P. aeruginosa [3]; 0.2% w/w in cream) | Colony counts (CFU/gm) C. albicans (C. albicans [4]; 0.2% w/w in cream) | Colony counts (CFU)/gm E. coli (E. coli [5]; 0.2% w/w in cream) | Colony counts (CFU)/gm S. aureus (S. aureus [6]; 0.2% w/w in cream) | Colony counts (CFU)/gm E. coli (E. coli [7]) | Colony counts (CFU)/gm S. aureus (S. aureus [8]) | Colony counts (CFU/gm) P. aeruginosa (P. aeruginosa [9]) | further results
CC(O)C(=O)O (stereo not drawn) [Lactic acid] | 5 × 10^6 CFU/gm cream | 2.0 × 10^6 CFU/gm | 2.0 × 10^6 CFU/gm | 2.0 × 10^6 CFU/gm | 1.5 × 10^4 CFU/gm | 2.3 × 10^4 CFU/gm | 3.0 × 10^3 CFU/gm | 1.2 × 10^6 CFU/gm | 6.0 × 10^4 CFU/gm | 2.0 × 10^6 CFU/gm | C. albicans (CFU/gm cream) (C. albicans [1]; 0.12% (single ingredient)): 4.2 × 10^6 CFU/gm cream
CCCCCCC(O)CO (stereo not drawn) |  |  | 1.0 × 10^5 CFU/gm |  |  |  |  |  |  |  | C. albicans (CFU/gm cream) (C. albicans [1]; printed as 30% (single ingredient)): 1.4 × 10^5 CFU/gm cream; C. albicans (CFU/gm cream) (C. albicans [1]; printed as 50% (single ingredient)): 0 CFU/gm cream; kills P. aeruginosa (P. aeruginosa [10]): 100%; Colony counts (CFU/gm) P. aeruginosa (P. aeruginosa [3]; 0.5% w/w in cream): 1.6 × 10^3 CFU/gm; Colony counts (CFU/gm) C. albicans (C. albicans [4]; 0.3% w/w in cream): 2.0 × 10^5 CFU/gm; Colony counts (CFU/gm) C. albicans (C. albicans [4]; 0.5% w/w in cream): 5.2 × 10^2 CFU/gm; Colony counts (CFU)/gm E. coli (E. coli [5]; 0.3% w/w in cream): 5.4 × 10^4 CFU/gm; Colony counts (CFU)/gm E. coli (E. coli [5]; 0.5% w/w in cream): 0 CFU/gm; Colony counts (CFU)/gm S. aureus (S. aureus [6]; 0.3% w/w in cream): 4.0 × 10^4 CFU/gm; Colony counts (CFU)/gm S. aureus (S. aureus [6]; 0.5% w/w in cream): 1.5 × 10^3 CFU/gm
O=C(O)CC(O)(CC(=O)O)C(=O)O [Citric acid] | 2.5 × 10^6 CFU/gm cream | 2.0 × 10^6 CFU/gm | 2.0 × 10^6 CFU/gm | 2.5 × 10^6 CFU/gm | 1.0 × 10^5 CFU/gm | 7.3 × 10^4 CFU/gm | 5.0 × 10^4 CFU/gm | 2.0 × 10^6 CFU/gm | 2.0 × 10^4 CFU/gm | 1.0 × 10^6 CFU/gm | activity of the combination against C. albicans in words (conclusion of Example 6) (C. albicans [2]; with a lower concentration of octanediol (0.2% w/w)): enhanced activity
